US7030265B2, “Retinol derivatives, the method of preparations and the uses thereof” (Chebigen, Inc., priority 2001, dated 2006)
Values joined by “and” are separate entries in the source; they are usually repeats but may differ in a detail not shown here. Identical values can stand only once.

How the values were obtained:
Format in all cases: cell-based
[1] = molecular target: T1, retinoic acid receptor α (Homo sapiens, UniProt P10276); assay: RAR activity test, DR5-tk-CAT reporter in Cos-1 cells; details: 1 μM, CAT ELISA, FIG. 3-5
T1 construct: expressed in transfected cells; b135 says HaCAT
T1 sequence (P10276 1-462): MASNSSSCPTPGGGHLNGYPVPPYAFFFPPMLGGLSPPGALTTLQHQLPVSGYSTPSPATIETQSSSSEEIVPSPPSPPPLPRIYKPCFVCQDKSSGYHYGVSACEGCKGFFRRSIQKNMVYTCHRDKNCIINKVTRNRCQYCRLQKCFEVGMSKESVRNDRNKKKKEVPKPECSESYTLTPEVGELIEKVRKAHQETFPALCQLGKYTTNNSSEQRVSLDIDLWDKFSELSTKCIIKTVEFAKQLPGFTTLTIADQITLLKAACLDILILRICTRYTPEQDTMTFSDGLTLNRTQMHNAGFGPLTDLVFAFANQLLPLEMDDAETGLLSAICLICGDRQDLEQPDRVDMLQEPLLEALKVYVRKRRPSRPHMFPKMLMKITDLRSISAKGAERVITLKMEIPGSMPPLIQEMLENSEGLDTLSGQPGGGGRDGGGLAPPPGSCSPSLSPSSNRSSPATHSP
Source text: Recombinant DNA, DR5-tk-CAT consisting of DR5, effectors of retinoic acid receptor/retinoid X receptor, thymine kinase promoter, and CAT (chloramphenicol acetyl transferase) were mixed with the plasmid DNA expressing retinoic acid receptor α, β, ? and utilized to cotransfect skin cancer (HaCAT) cell line with lipofectamine (GibcoBRL). […] The cells were washed with phosphate-buffered saline (PBS), and the proteins were isolated from each cells, and the activity of β-galactosidase and protein contents were measured to determine transfection efficacy, the transcription level of RAR receptor were measured with CAT ELISA.
(§1) All procedures were done as Experimental Example 3.
as §1

[2] = molecular target: T2, retinoic acid receptor γ (Homo sapiens, UniProt P13631); assay: as above; details: 1 μM, CAT ELISA, FIG. 3-5
T2 construct: expressed in transfected cells; b135 says HaCAT
T2 sequence (P13631 1-454): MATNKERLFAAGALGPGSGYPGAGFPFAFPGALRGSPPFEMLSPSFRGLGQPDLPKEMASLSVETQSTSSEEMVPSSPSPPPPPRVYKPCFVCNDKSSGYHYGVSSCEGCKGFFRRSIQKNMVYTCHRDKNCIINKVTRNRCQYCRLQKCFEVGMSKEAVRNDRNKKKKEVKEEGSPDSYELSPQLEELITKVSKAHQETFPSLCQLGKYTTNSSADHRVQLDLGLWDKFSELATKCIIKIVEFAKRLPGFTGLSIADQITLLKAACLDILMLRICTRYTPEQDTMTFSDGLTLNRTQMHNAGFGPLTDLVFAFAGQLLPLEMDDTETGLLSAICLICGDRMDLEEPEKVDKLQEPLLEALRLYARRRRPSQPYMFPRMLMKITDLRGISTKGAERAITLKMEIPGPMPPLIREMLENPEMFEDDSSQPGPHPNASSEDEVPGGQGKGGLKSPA

[3] = system: activation protein-1 (AP-1); assay: Activity inhibition test of AP-1, Coll-CAT reporter in Cos-1 cells; details: for effect on AP-1 activity inhibition, compared in words: Coll-CAT; for lowered the expression of collagenase (Coll-CAT): expression level in the presence of c-Jun expression set as 100%
Source text: CAT reporter (Coll-CAT) containing collagen promoter including AP-1 transcription factor binding site (TRE) was utilized to transfect Cos-1 cell line. Activity inhibition tests of activation protein-1 (AP-1) similar to the experimental example 6 were proceeded.

[4] = molecular target: T3, retinoic acid receptor β (Homo sapiens, UniProt P10826); assay: RAR activity test, DR5-tk-CAT reporter in Cos-1 cells; details: 1 μM, CAT ELISA, FIG. 3-5
T3 construct: expressed in transfected cells; b135 says HaCAT
T3 sequence (P10826 1-455): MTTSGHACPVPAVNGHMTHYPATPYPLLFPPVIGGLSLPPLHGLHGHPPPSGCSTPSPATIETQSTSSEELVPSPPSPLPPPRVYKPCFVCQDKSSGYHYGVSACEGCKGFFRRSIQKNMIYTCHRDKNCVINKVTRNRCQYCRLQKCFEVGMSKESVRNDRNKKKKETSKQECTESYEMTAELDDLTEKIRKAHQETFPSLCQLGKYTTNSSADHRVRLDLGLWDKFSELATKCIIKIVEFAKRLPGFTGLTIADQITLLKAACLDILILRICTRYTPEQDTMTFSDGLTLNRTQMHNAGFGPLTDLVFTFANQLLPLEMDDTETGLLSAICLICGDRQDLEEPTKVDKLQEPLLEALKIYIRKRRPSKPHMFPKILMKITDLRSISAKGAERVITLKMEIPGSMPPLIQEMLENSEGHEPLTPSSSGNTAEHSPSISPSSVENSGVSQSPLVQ

[5] = system: activation protein-1 (AP-1); assay: Activity inhibition test of AP-1, Coll-CAT reporter in HaCAT cells; details: c-Jun expression, in the presence of retinoic acid receptor α, CAT ELISA, FIG. 6
Procedure: Since the activation protein-1 (c-Jun is the constituent of AP-1) is transcription factor inducing expression of collagenase enzyme, which is a major cause of skin wrinkle, the effect of wrinkle prevention was determined by the activity inhibition test of AP-1.
CAT reporter (Coll-CAT) containing collagen promoter including AP-1 transcription factor binding site (TRE) were utilized to cotransfect skin cancer (HaCAT) cell line. The effect of retinol derivatives on the activity of AP-1 was measured by CAT ELISA. In some cases, the vector expressing c-Jun or retinoic acid receptors were utilized to cotransfect, and the effect of retinol derivatives on the transcription activity of c-Jun was analyzed.
With the assumption of the prepared retinol-(N-formyl-aspartam) derivatives which inhibit the activity of AP-1 causing skin wrinkle, would have the utility for cosmetics, the related investigations were proceeded. Similar to the experiment of retinoic acid receptor, AP-1 (c-jun) expression vector and Coll-CAT plasmid for the activity measurement were introduced into the skin cancer (HaCAT) cell line with liposome. After treating the cells with retinol-(N-formyl-aspartam) derivatives, the cell extracts were isolated. The expression level of CAT were measured with CAT ELISA to determine the effect of retinol-(N-formyl-aspartam) on the activity of the AP-1.

[6] = molecular target: T1, retinoic acid receptor α; assay: RAR activity test, DR5-tk-CAT reporter in HaCAT cells; details: 1 μM, CAT ELISA, FIG. 2 (A)
Source text: (§2) To analyze the effects of retinol-(N-formyl-aspartam) on the activity of retinoic acid receptor, skin cancer (HaCAT) cell lines were utilized to measure the activity of retinoic acid receptor/retinoid X receptor.
(§3) Recombinant DNA, DR5-tk-CAT or DR1-tk-CAT consisting of DR1 or DR5, effectors of retinoic acid receptor/retinoid X receptor, thymine kinase promoter, and CAT(chloramphenicol acetyl transferase) were mixed with the plasmid DNA expressing retinoic acid receptor α, β, ? or retinoid X receptor α, β, ? to cotransfect skin cancer (HaCAT) cell line with lipofectamine (GibcoBRL). The cotransfected cell lines were cultured for 1 day on DMEM/10% FBS media, each retinol derivatives (1 μM) were added and cultured for one more day, 5% CO2, 37° C. The cells were washed with phosphate-buffered saline (PBS), and the proteins were isolated from each cells, and the activity of β-galactosidase and protein contents were measured to determine transfection efficacy, the transcription level of RAR or RXR receptor were measured with CAT ELISA (Roche Molecular Biochemical, Mannheim, Germany).
To determine the effect of retinol-(N-formyl-aspartam) on retinoic acid receptors, each retinoic acid receptor (α, β, or ? ) expression vector and activity measuring DR5-tk-CAT plasmid were introduced with liposome. After treating cells with retinol-(N-formyl-aspartam), the cell extracts were isolated. The expression level of CAT were measured with CAT ELISA to determine the effect of retinol-(N-formyl-aspartam) on the activity of retinoic acid receptors.

[7] = molecular target: T4, retinoid X receptor β (Homo sapiens, UniProt P28702); assay: RXR activity test, DR1-tk-CAT reporter in HaCAT cells; details: 1 μM, CAT ELISA, FIG. 2 (B)
T4 construct: expressed in transfected cells; host or cells: HaCAT
T4 sequence (P28702 1-533): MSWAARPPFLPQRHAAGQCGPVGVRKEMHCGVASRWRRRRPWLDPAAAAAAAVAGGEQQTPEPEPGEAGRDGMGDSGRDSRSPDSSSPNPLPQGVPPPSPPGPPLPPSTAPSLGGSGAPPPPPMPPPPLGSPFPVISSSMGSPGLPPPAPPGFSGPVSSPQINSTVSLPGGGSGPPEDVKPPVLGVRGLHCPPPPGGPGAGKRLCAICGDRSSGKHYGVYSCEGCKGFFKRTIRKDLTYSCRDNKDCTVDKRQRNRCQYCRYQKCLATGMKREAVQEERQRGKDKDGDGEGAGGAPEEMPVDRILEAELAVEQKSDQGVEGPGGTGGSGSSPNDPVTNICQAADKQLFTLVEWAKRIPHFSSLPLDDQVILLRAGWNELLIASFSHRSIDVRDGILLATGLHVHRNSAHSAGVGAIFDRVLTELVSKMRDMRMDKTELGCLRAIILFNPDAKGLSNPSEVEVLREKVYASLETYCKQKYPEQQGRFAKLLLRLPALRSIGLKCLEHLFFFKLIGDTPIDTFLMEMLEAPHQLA
Source text: as §2, §3

[8] = molecular target: T5, retinoid X receptor α (Homo sapiens, UniProt P19793); assay: as above; details: 1 μM, CAT ELISA, FIG. 2 (B)
T5 construct: expressed in transfected cells; host or cells: HaCAT
T5 sequence (P19793 1-462): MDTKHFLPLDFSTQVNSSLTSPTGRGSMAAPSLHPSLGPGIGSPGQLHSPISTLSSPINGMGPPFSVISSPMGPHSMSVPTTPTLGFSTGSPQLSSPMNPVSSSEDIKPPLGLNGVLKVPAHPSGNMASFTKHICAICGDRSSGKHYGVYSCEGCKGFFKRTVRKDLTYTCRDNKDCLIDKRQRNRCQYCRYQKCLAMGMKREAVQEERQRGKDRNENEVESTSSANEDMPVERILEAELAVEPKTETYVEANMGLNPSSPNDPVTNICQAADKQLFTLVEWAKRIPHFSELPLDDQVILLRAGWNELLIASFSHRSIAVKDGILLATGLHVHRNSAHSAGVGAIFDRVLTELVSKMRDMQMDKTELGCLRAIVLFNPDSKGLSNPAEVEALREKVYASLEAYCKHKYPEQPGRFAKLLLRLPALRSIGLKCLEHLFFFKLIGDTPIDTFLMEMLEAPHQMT
Source text: as §2, §3

[9] = molecular target: T6, retinoid X receptor γ (Homo sapiens, UniProt P48443); assay: as above; details: 1 μM, CAT ELISA, FIG. 2 (B)
T6 construct: expressed in transfected cells; host or cells: HaCAT
T6 sequence (P48443 1-463): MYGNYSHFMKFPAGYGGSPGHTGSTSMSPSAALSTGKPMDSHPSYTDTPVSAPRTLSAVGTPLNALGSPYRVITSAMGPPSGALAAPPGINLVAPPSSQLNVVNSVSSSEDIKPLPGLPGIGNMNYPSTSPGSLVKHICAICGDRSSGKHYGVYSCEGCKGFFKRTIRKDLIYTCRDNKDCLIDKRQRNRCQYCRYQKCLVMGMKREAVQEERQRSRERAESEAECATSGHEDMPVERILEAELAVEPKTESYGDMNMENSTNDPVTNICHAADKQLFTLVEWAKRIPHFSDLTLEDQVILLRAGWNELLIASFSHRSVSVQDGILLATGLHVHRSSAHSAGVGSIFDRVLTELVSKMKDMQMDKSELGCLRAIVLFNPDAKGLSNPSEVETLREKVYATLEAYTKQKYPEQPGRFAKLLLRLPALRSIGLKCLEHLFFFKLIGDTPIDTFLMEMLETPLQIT
Source text: as §2, §3

Compound	activation of retinoic acid receptor α [1]	activation of retinoic acid receptor γ [2]	effect on AP-1 activity inhibition, compared in words [3]	lowered the expression of collagenase (Coll-CAT) [3]	activation of retinoic acid receptor β [4]	lowered the expression of collagenase (Coll-CAT) [5]	activation of retinoic acid receptor α [6]	activation of retinoid X receptor β [7]	activation of retinoid X receptor α [8]	activation of retinoid X receptor γ [9]
CC1=C(/C=C/C(C)=C/C=C/C(C)=C/COC(=O)/C=C/C(=O)OC/C=C(C)/C=C/C=C(C)/C=C/C2=C(C)CCCC2(C)C)C(C)(C)CCC1 [retinol-(fumalic acid), Di[(2E,4E,6E,8E)-3,7-dimethyl-9-(2,6,6-trimethyl-1-cyclohexenyl)-2,4,6,8-nonatetraenyl] (E)-2-butenedioate]	high activation	weak activation	no significant effect on AP-1 activity inhibition than retinoic acid or retinol	approximately 42%	weak activation	–	–	–	–	–
CC1=C(/C=C/C(C)=C/C=C/C(C)=C/C(=O)O)C(C)(C)CCC1 [retinoic acid, reference compound]	–	–	–	~50% and ~47.5%	–	approximately 60%	–	–	–	–
CC1=C(/C=C/C(C)=C/C=C/C(C)=C/COC/C=C(C)/C=C/C=C(C)/C=C/C2=C(C)CCCC2(C)C)C(C)(C)CCC1 [retinol-(retinol), (1E,3E,5E,7E)-9[(2E,4E,6E,8E)-3,7-dimethyl-9-(2,6,6-trimethyl-1-cyclohexenyl)-2,4,6,8-nonatetraenyl]oxy-3,7-dimethyl-1-(2,6,6-trimethyl-1-cyclohexenyl)-1,3,5,7-nonateraene]	high activation	weak activation	–	~41.5%	weak activation	–	–	–	–	–
CC1=C(/C=C/C(C)=C/C=C/C(C)=C/CO)C(C)(C)CCC1 [retinol]	high activation	–	–	approximately 43%	–	approximately 47%	high activation	no activation	no activation	no activation
CC1=C(/C=C/C(C)=C/C=C/C(C)=C/COC(=O)/C=C(\C)C(=O)OC/C=C(C)/C=C/C=C(C)/C=C/C2=C(C)CCCC2(C)C)C(C)(C)CCC1 [retinol-(mesaconic acid), Di[(2E,4E,6E,8E)-3,7-dimethyl-9-(2,6,6-trimethyl-1-cyclohexenyl)-2.4,6,8-nonatetraenyl] (E)-2-methyl-2-butenedioate]	–	–	less effect on AP-1 activity inhibition than retinoic acid or retinol	~30%	–	–	–	–	–	–
